Laboratory results published in patent US20240245711A1, “A 19-NOR C3,3-DISUBSTITUTED C21-N-PYRAZOLYL STEROID FOR THE TREATMENT OF MAJOR DEPRESSIVE DISORDER” (Sage Therapeutics, Inc., priority 2021, published 2024).
“And” between values parts separate entries of the source, which are not always exact repeats. Equal values may be shown once.

System: adult subjects with Major Depressive Disorder
Assay: Phase 3 open-label 1-year study: need for re-treatment (number of and time to re-treatments)
Format: in vivo, human
Settings: for Subjects with No re-treatment (Cycle 1), n (%) / Subjects with Only 1 re-treatment (Cycle 2), n (%) / Subjects with Only 2 re-treatment (Cycle 3), n (%) / Subjects with Only 3 re-treatment (Cycle 4), n (%) / Subjects with Only 4 re-treatment (Cycle 5), n (%): FAS; for Time to re-treatment, Mean (SD): Low Dose Cohort (FAS)
Description: Secondary Objective: To assess the need for re-treatment with Compound (1) following initial treatment in adults with MDD currently experiencing an MDE over a 1-year period, and to assess the response of initial treatment and re-treatment(s) with Compound (1) following an initial 2-week treatment period in adults with MDD currently experiencing an MDE over a 1-year period.
Secondary Endpoints: The need for re-treatment with Compound (1) as assessed by: time to first re-treatment (Kaplan-Meier curves), number of subjects achieving the requirements for re-treatment, number of re-treatment cycles for each subject, the response of initial treatment and/or re-treatment as assessed by: change from baseline in the 17-item Hamilton Rating Scale for Depression (HAM-D) total score at the end of each 14-day treatment (initial and/or re-treatment) period, HAM-D response at the end of each 14-day treatment (initial and/or re-treatment) period, defined as a ≥50% reduction in HAM-D score from baseline, HAM-D remission at the end of each 14-day treatment (initial and/or re-treatment) period, defined as HAM-D total score≤7, Clinical Global Impression-Improvement (CGI-I) response, defined as “much improved” or “very much improved”, at the end of each 14-day treatment (initial and/or re-treatment) period, change from baseline in Clinical Global Impression-Severity (CGI-S) score at the end of each 14-day treatment (initial and/or re-treatment) period.
Subjects who continued in the Observation Period were monitored remotely via PHQ-9 assessment every two weeks. If PHQ-9 score was >=10 at any assessment, PHQ-9 assessment was switch to every week until the score came down below 10 or the subject was dosed with Compound (1) in a subsequent cycle, whichever was earlier. A subject was to come back to the site for HAM-D assessment within a week of PHQ-9 score >=10; if the HAM-D total score >=20 and at least 56 days had elapsed since the last dose of Compound (1), another dosing cycle of Compound (1) were to start. If any of these criteria were not met, the subject couldn't be treated with Compound (1) at that time. Without the trigger of PHQ-9>=10 the subject was to have a clinic visit every 8 weeks. A subject could have at most 5 cycles of treatment within a year. FIG. 2 is a depiction of the eligibility criteria of the study.
The cohorts pertaining to the different doses that the subjects received were defined as following: • 50 mg cohort: This cohort includes subjects who have initiated treatment with 50 mg and received re-treatment with 50 mg only. • 30 mg cohort: This cohort includes subjects who have initiated treatment with 30 mg regardless of the dose they have received in re-treatments. • Low dose cohort: This cohort includes subjects who have initiated treatment with 30 mg and received re-treatment with 30 mg only. • Dose switch cohort: This cohort includes subjects who have received initial treatment with 30 mg and at least one subsequent re-treatment with 50 mg. • Study Period X: starts on the date of the first dose of Compound (1) in cycle X and goes up to one day prior to the first dose of the next cycle. In some embodiments, X is any number from 1 to 5. • Treatment Period X: starts on the date of the first dose of Compound (1) in cycle X and goes up to one day after the last dose in cycle X. In some embodiments, X is any number from 1 to 5. • Treatment Cycle X: starts on the date of the first dose of Compound (1) in cycle X and goes up to 14 days after the last dose in cycle X. The treatment cycles may be denoted as C1-C5. • Observation period X: starts the day after Treatment Cycle X ends and goes up to one day prior to the start of next treatment cycle. In some embodiments, X is any number from 1 to 5.
Analysis Sets: The safety set was defined as all subjects who were administered study drug. The period-specific safety set includes subjects in the safety set who were administered study drug in the corresponding treatment cycle. […]

[1] = ATD Use at Baseline = No, 30 mg Cohort (N = 280)
[2] = ATD Use at Baseline = No, 50 mg Cohort (N = 86)
[3] = ATD Use at Baseline = Yes, 30 mg Cohort (N = 209)
[4] = ATD Use at Baseline = Yes, 50 mg Cohort (N = 60)

**Q.** What does the source list for `C[C@@]1(O)CC[C@H]2[C@H](CC[C@@H]3[C@@H]2CC[C@]2(C)[C@@H](C(=O)Cn4cc(C#N)cn4)CC[C@@H]32)C1` [Compound (1), 1-(2-((3R,5R,8R,9R,10S,13S,14S,17S)-3-hydroxy-3,13-dimethylhexadecahydro-1H-cyclopenta[a]phenanthren-17-yl)-2-oxoethyl)-1H-pyrazole-4-carbonitrile]?
**A.** Time to re-treatment since last dose in previous cycle, Median (Cycle 5, Dose Switch (FAS)): 58 days; Time to re-treatment since last dose in previous cycle, Min - Max (Cycle 5, Dose Switch (FAS)): 57 to 79 days; n/N: FAS subjects eligible and dosed in Cycle X / eligible for dosing in Cycle X (Cycle 5, Low Dose): 20/34; Time to re-treatment since last dose in previous cycle, Mean (SD) (Cycle 5, Low Dose (FAS)): 63.2 (7.42) Days; Time to re-treatment since last dose in previous cycle, Median (Cycle 5, Low Dose (FAS)): 60.5 days; Time to re-treatment since last dose in previous cycle, Min - Max (Cycle 5, Low Dose (FAS)): 58 to 86 days; Dosed in at least 1 re-treatment cycle, % of eligible (Dose Switch (80 eligible)): 80 (100%); Qualified to be retreated in at least 1 more cycle (HAM-D total score >= 20), % of eligible (Dose Switch (80 eligible)): 80 (100%); Subjects with No re-treatment (Cycle 1), n (%) of FAS (Dose Switch (N = 80)): 0%; Subjects with Only 1 re-treatment (Cycle 2), n (%) of FAS (Dose Switch (N = 80)): 9 (11.3%); Subjects with Only 2 re-treatment (Cycle 3), n (%) of FAS (Dose Switch (N = 80)): 18 (22.5%); Subjects with Only 3 re-treatment (Cycle 4), n (%) of FAS (Dose Switch (N = 80)): 30 (37.5%); Subjects with Only 4 re-treatment (Cycle 5), n (%) of FAS (Dose Switch (N = 80)): 23 (28.8%); Average (range) number of re-treatments per subject over 1-year follow-up (Dose Switch Cohort): 2.8 (1-4); FAS Subjects Dosed in C2, n (%) of FAS (Dose Switch Cohort): 80 (100%); FAS Subjects dosed in C3, n (%) of FAS (Dose Switch Cohort): 71 (88.8%); FAS Subjects dosed in C4, n (%) of FAS (Dose Switch Cohort): 53 (66.3%); FAS Subjects dosed in C5, n (%) of FAS (Dose Switch Cohort): 23 (28.8%); Subjects with No re-treatment (Cycle 1), n (%) [1]: 114 (40.7%); Subjects with Only 1 re-treatment (Cycle 2), n (%) [1]: 80 (28.6%); Subjects with Only 2 re-treatment (Cycle 3), n (%) [1]: 31 (11.1%); Subjects with Only 3 re-treatment (Cycle 4), n (%) [1]: 33 (11.8%); Subjects with Only 4 re-treatment (Cycle 5), n (%) [1]: 22 (7.9%); Subjects with No re-treatment (Cycle 1), n (%) [2]: 72 (83.7%); Subjects with Only 1 re-treatment (Cycle 2), n (%) [2]: 13 (15.1%); Subjects with Only 2 re-treatment (Cycle 3), n (%) [2]: 1 (1.2%); Subjects with Only 3 re-treatment (Cycle 4), n (%) [2]: 0%; Subjects with Only 4 re-treatment (Cycle 5), n (%) [2]: 0%; Subjects with No re-treatment (Cycle 1), n (%) [3]: 96 (45.9%); Subjects with Only 1 re-treatment (Cycle 2), n (%) [3]: 45 (21.5%); Subjects with Only 2 re-treatment (Cycle 3), n (%) [3]: 27 (12.9%); Subjects with Only 3 re-treatment (Cycle 4), n (%) [3]: 20 (9.6%); Subjects with Only 4 re-treatment (Cycle 5), n (%) [3]: 21 (10.0%); Subjects with No re-treatment (Cycle 1), n (%) [4]: 48 (80.0%); Subjects with Only 1 re-treatment (Cycle 2), n (%) [4]: 12 (20.0%); Subjects with Only 2 re-treatment (Cycle 3), n (%) [4]: 0%; Dosed in at least 1 re-treatment cycle, % of eligible (Low Dose (199 of 392 eligible)): 199 0.8%) and 199 (0.8%); Qualified to be retreated in at least 1 more cycle (HAM-D total score >= 20), % of eligible (Low Dose (392 eligible)): 225 (57.4%); Subjects with No re-treatment (Cycle 1), n (%) of FAS (Low Dose (N = 409)): 210 (51.3%); Subjects with Only 1 re-treatment (Cycle 2), n (%) of FAS (Low Dose (N = 409)): 116 (28.4%); Subjects with Only 2 re-treatment (Cycle 3), n (%) of FAS (Low Dose (N = 409)): 40 (9.8%) and 40 (9.7%); Subjects with Only 3 re-treatment (Cycle 4), n (%) of FAS (Low Dose (N = 409)): 23 (5.6%); Subjects with Only 4 re-treatment (Cycle 5), n (%) of FAS (Low Dose (N = 409)): 20 (4.9%); Average (range) number of re-treatments per subject over 1-year follow-up (Low Dose Cohort): 0.8 (0-4) and 0.8; Average total number of treatments per subject (Low Dose Cohort): 1.8; Effect of antidepressant use on length of time between re-treatments (Low Dose Cohort): did not make much difference; FAS Subjects Dosed in C2, n (%) of FAS (Low Dose Cohort): 199 (48.7%); FAS Subjects dosed in C3, n (%) of FAS (Low Dose Cohort): 83 (20.3%); FAS Subjects dosed in C4, n (%) of FAS (Low Dose Cohort): 43 (10.5%); FAS Subjects dosed in C5, n (%) of FAS (Low Dose Cohort): 20 (4.9%); Time to re-treatment, Mean (SD) (dosed in Cycle 2, ATD use at baseline of previous cycle No): 97.2 (49.59) Days and 97.2 Days; Time to re-treatment, Mean (SD) (dosed in Cycle 2, ATD use at baseline of previous cycle Yes): 103.3 (56.26) Days and 103.3 Days; Time to re-treatment, Mean (SD) (dosed in Cycle 3, ATD use at baseline of previous cycle No): 88.4 (37.52) Days and 88.4 Days; Time to re-treatment, Mean (SD) (dosed in Cycle 3, ATD use at baseline of previous cycle Yes): 85.9 (32.14) Days and 85.9 Days; Time to re-treatment, Mean (SD) (dosed in Cycle 4, ATD use at baseline of previous cycle No): 73.0 (18.40) Days and 73.0 Days; Time to re-treatment, Mean (SD) (dosed in Cycle 4, ATD use at baseline of previous cycle Yes): 71.1 (17.21) Days and 71.1 Days; Time to re-treatment, Mean (SD) (dosed in Cycle 5, ATD use at baseline of previous cycle No): 61.9 (3.28) Days and 61.9 Days; Time to re-treatment, Mean (SD) (dosed in Cycle 5, ATD use at baseline of previous cycle Yes): 64.5 (10.09) Days and 64.5 Days; Re-treatment rates with and without pre-existing antidepressant therapy (in vivo): similar; Mean (range) number of total treatment courses (overall study population): 1.8 (1-5); Patients not requiring additional treatment courses during their time in the study (overall study population): 43.7%
